Laboratory results reported in ChEMBL document CHEMBL1201862, “PubChem BioAssay data set” (2004).
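Values below derive from 48-hour exposures of cells grown in 96-well plates, with endpoints linearly interpolated between the two concentrations bracketing the appropriate inhibition level. GI50 is the concentration that inhibits growth by half.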 Calls of active or inactive are those of the source. Cut-off read from the data, not from the text of the source: active = GI50 up to about 1.1 µM and inactive = higher.

Tests used:
Test in all cases: NCI tumour cell line growth inhibition, 48 h
HOP-62 = test system: HOP-62
COLO 205 = test system: COLO 205
SF-268 = test system: SF-268
M14 = test system: M14
SF-295 = test system: SF-295
CCRF-CEM = test system: CCRF-CEM
HL-60 = test system: HL-60
OVCAR-5 = test system: OVCAR-5
Malme-3M = test system: Malme-3M
NCI-H460 = test system: NCI-H460
OVCAR-4 = test system: OVCAR-4
EKVX = test system: EKVX
NCI-H23 = test system: NCI-H23
LXFL 529 = test system: LXFL 529
M19-MEL = test system: M19-MEL
786-0 = test system: 786-0
SR = test system: SR
RXF 393 = test system: RXF 393
HCC 2998 = test system: HCC 2998
PC-3 = test system: PC-3

SMILES: CC(C)N1CN(C(C(=O)N[C@@H]2C(=O)N3C2SC(C)(C)C3C(=O)O)c2ccc(O)cc2)CSC1=S (stereo not given in full)
- GI50 (HOP-62): > 100 µM (inactive)
- GI50 (COLO 205): 33.8 µM (inactive)
- GI50 (SF-268): > 100 µM (inactive)
- GI50 (M14): > 100 µM (inactive)
- GI50 (SF-295): > 100 µM (inactive)
- GI50 (CCRF-CEM): 58.7 µM (inactive)
- GI50 (HL-60): > 100 µM (inactive)
- GI50 (OVCAR-5): > 100 µM (inactive)
- GI50 (Malme-3M): > 100 µM (inactive)
- GI50 (NCI-H460): > 100 µM (inactive)
- GI50 (OVCAR-4): > 100 µM (inactive)
- GI50 (EKVX): > 100 µM (inactive)
- GI50 (NCI-H23): > 100 µM (inactive)
- GI50 (LXFL 529): > 100 µM (inactive)
- GI50 (M19-MEL): > 100 µM (inactive)
- GI50 (786-0): > 100 µM (inactive)

SMILES: CC1=NC2(C(=O)O)C3(C(=O)O)N=C(C)OC3(C(F)(F)F)C2(C(F)(F)F)O1 (stereo not given)
- GI50 (HOP-62): > 100 µM (inactive)
- GI50 (COLO 205): > 100 µM (inactive)
- GI50 (SF-268): > 100 µM (inactive)
- GI50 (SR): > 100 µM (inactive)
- GI50 (M14): > 100 µM (inactive)
- GI50 (SF-295): > 100 µM (inactive)
- GI50 (CCRF-CEM): > 100 µM (inactive)
- GI50 (HL-60): > 100 µM (inactive)
- GI50 (OVCAR-5): > 100 µM (inactive)
- GI50 (Malme-3M): > 100 µM (inactive)
- GI50 (NCI-H460): > 100 µM (inactive)
- GI50 (OVCAR-4): > 100 µM (inactive)
- GI50 (EKVX): > 100 µM (inactive)
- GI50 (RXF 393): > 100 µM (inactive)
- GI50 (NCI-H23): > 100 µM (inactive)
- GI50 (HCC 2998): > 100 µM (inactive)
- GI50 (M19-MEL): > 100 µM (inactive)
- GI50 (786-0): > 100 µM (inactive)

SMILES: C=CN1CCN(c2ccccc2)P1(=O)Oc1ccccc1 (stereo not given)
- GI50 (HOP-62): > 100 µM (inactive)
- GI50 (COLO 205): > 100 µM (inactive)
- GI50 (SF-268): > 100 µM (inactive)
- GI50 (SR): > 100 µM (inactive)
- GI50 (M14): 40.2 µM (inactive)
- GI50 (SF-295): > 100 µM (inactive)
- GI50 (PC-3): 31.3 µM (inactive)
- GI50 (CCRF-CEM): > 100 µM (inactive)
- GI50 (HL-60): > 100 µM (inactive)
- GI50 (OVCAR-5): > 100 µM (inactive)
- GI50 (Malme-3M): > 100 µM (inactive)
- GI50 (NCI-H460): > 100 µM (inactive)
- GI50 (OVCAR-4): > 100 µM (inactive)
- GI50 (EKVX): 45 µM (inactive)
- GI50 (RXF 393): 42.5 µM (inactive)
- GI50 (NCI-H23): > 100 µM (inactive)
- GI50 (HCC 2998): > 100 µM (inactive)
- GI50 (786-0): > 100 µM (inactive)

SMILES: CC1=N[C@@](C)(C2CC3C=CC2C3=O)COC1=O (stereo not given in full)
- GI50 (HOP-62): > 100 µM (inactive)
- GI50 (COLO 205): > 100 µM (inactive)
- GI50 (SF-268): > 100 µM (inactive)
- GI50 (SR): > 100 µM (inactive)
- GI50 (M14): > 100 µM (inactive)
- GI50 (SF-295): > 100 µM (inactive)
- GI50 (PC-3): > 100 µM (inactive)
- GI50 (CCRF-CEM): > 100 µM (inactive)
- GI50 (HL-60): > 100 µM (inactive)
- GI50 (OVCAR-5): > 100 µM (inactive)
- GI50 (Malme-3M): > 100 µM (inactive)
- GI50 (NCI-H460): > 100 µM (inactive)
- GI50 (OVCAR-4): > 100 µM (inactive)
- GI50 (EKVX): > 100 µM (inactive)
- GI50 (RXF 393): > 100 µM (inactive)
- GI50 (NCI-H23): > 100 µM (inactive)
- GI50 (HCC 2998): > 100 µM (inactive)
- GI50 (786-0): > 100 µM (inactive)

SMILES: C/C=C(\C)CC/C=C/CO[Si](C)(C)C(C)(C)C
- GI50 (HOP-62): > 100 µM (inactive)
- GI50 (COLO 205): > 100 µM (inactive)
- GI50 (SF-268): > 100 µM (inactive)
- GI50 (SR): 28.9 µM (inactive)
- GI50 (M14): > 100 µM (inactive)
- GI50 (SF-295): 79.1 µM (inactive)
- GI50 (PC-3): > 100 µM (inactive)
- GI50 (CCRF-CEM): 24.7 µM (inactive)
- GI50 (HL-60): 32.6 µM (inactive)
- GI50 (OVCAR-5): > 100 µM (inactive)
- GI50 (Malme-3M): 51.1 µM (inactive)
- GI50 (NCI-H460): > 100 µM (inactive)
- GI50 (OVCAR-4): > 100 µM (inactive)
- GI50 (EKVX): > 100 µM (inactive)
- GI50 (RXF 393): > 100 µM (inactive)
- GI50 (NCI-H23): > 100 µM (inactive)
- GI50 (HCC 2998): > 100 µM (inactive)
- GI50 (786-0): > 100 µM (inactive)

SMILES: CC(C)c1cc2c(cc1S(=O)(=O)O)[C@@]1(C)CCC[C@@](C)(C(=O)O)C1CC2 (stereo not given in full)
- GI50 (HOP-62): > 100 µM (inactive)
- GI50 (COLO 205): > 100 µM (inactive)
- GI50 (SF-268): > 100 µM (inactive)
- GI50 (SR): > 100 µM (inactive)
- GI50 (M14): > 100 µM (inactive)
- GI50 (SF-295): > 100 µM (inactive)
- GI50 (PC-3): > 100 µM (inactive)
- GI50 (CCRF-CEM): > 100 µM (inactive)
- GI50 (HL-60): > 100 µM (inactive)
- GI50 (OVCAR-5): > 100 µM (inactive)
- GI50 (Malme-3M): > 100 µM (inactive)
- GI50 (NCI-H460): > 100 µM (inactive)
- GI50 (OVCAR-4): > 100 µM (inactive)
- GI50 (EKVX): > 100 µM (inactive)
- GI50 (RXF 393): > 100 µM (inactive)
- GI50 (NCI-H23): > 100 µM (inactive)
- GI50 (HCC 2998): > 100 µM (inactive)
- GI50 (786-0): > 100 µM (inactive)

SMILES: Cl/C(=C\C=N\c1ccc(I)cc1)c1ccc2ccccc2c1
- GI50 (HOP-62): 17.7 µM (inactive)
- GI50 (COLO 205): 16.3 µM (inactive)
- GI50 (SF-268): 20.7 µM (inactive)
- GI50 (SR): 3.91 µM (inactive)
- GI50 (M14): 14.3 µM (inactive)
- GI50 (SF-295): 19.1 µM (inactive)
- GI50 (PC-3): 25.3 µM (inactive)
- GI50 (CCRF-CEM): 7.29 µM (inactive)
- GI50 (HL-60): 12.9 µM (inactive)
- GI50 (OVCAR-5): 34.6 µM (inactive)
- GI50 (Malme-3M): 20.6 µM (inactive)
- GI50 (NCI-H460): 24.2 µM (inactive)
- GI50 (OVCAR-4): 24.5 µM (inactive)
- GI50 (EKVX): 36.2 µM (inactive)
- GI50 (RXF 393): 22.2 µM (inactive)
- GI50 (NCI-H23): 16 µM (inactive)
- GI50 (HCC 2998): 0.0322 µM (active)
- GI50 (786-0): 17.6 µM (inactive)

SMILES: c1cc2ccc1C1NCCCN1CCN1CCCNC1c1ccc(cc1)C1NCCCN1CCN1CCCNC21 (stereo not given)
- GI50 (HOP-62): > 100 µM (inactive)
- GI50 (COLO 205): 54.3 µM (inactive)
- GI50 (SF-268): > 100 µM (inactive)
- GI50 (M14): 99.8 µM (inactive)
- GI50 (SF-295): > 100 µM (inactive)
- GI50 (CCRF-CEM): 41.8 µM (inactive)
- GI50 (HL-60): 20.1 µM (inactive)
- GI50 (OVCAR-5): > 100 µM (inactive)
- GI50 (Malme-3M): 44.4 µM (inactive)
- GI50 (NCI-H460): 77.3 µM (inactive)
- GI50 (OVCAR-4): > 100 µM (inactive)
- GI50 (EKVX): > 100 µM (inactive)
- GI50 (NCI-H23): > 100 µM (inactive)
- GI50 (LXFL 529): 78.7 µM (inactive)
- GI50 (M19-MEL): 95.7 µM (inactive)
- GI50 (786-0): > 100 µM (inactive)
